Molecules are shown by their SMILES. Read-outs that look alike come from different tables or passages of the source. Some results are limits rather than exact numbers.

One data set concerns HCV replicon. The experiment in a line: microbe, parasite or virus in culture. Format: cell-based, hepatitis C virus. The settings on record: Hepatitis C virus.

As a reminder, the IC50 is the concentration needed to halve the response being measured. A word on the melting point: it is the temperature of the solid-liquid transition. With `CCn1c(-c2ccc(OCCNC(C)=O)cc2)c(C#N)c2ccc(OC)cc21` [Compound 274, N-{2-[4-(3-cyano-1-ethyl-6-methoxy-1H-indol-2-yl)-phenoxy]-ethyl}acetamide], the melting point was 166 to 172 °C. In addition, the IC50 in the data set with HCV replicon (read-out: Replicon IC50 μM) was above 2 µM.
The like results for `CCNC(=O)NCCOc1ccc(-c2c(C#N)c3ccc(OC)cc3n2CC)cc1` [Compound 279, 1-{2-[4-(3-cyano-1-ethyl-6-methoxy-1H-indol-2-yl)-phenoxy]ethyl}-3-ethyl-urea] were, in that order, 197 to 202 °C and above 2 µM.
In the same order, the values of `CCn1c(-c2ccc(OCCNC=O)cc2)c(C#N)c2ccc(OC)cc21` [Compound 280, N-{2-[4-(3-cyano-1-ethyl-6-methoxy-1H-indol-2-yl)-phenoxy]ethyl}formamide] are 89 to 95 °C and above 2 µM.
The like results for `CCn1c(-c2ccc(OCC(=O)N3CC[C@H](O)C3)cc2)c(C#N)c2ccc(OC)cc21` [Compound 285, 1-ethyl-2-{4-[2-(3-hydroxypyrrolidin-1-yl)-2-oxo-ethoxy]phenyl}-6-methoxy-1H-indole-3-carbonitrile] were, in that order, 185 to 190 °C and above 2 µM.
Compound `CCn1c(-c2cccc(O)c2)c(C#N)c2ccc(OC)cc21` [Compound 288, 1-ethyl-2-(3-hydroxyphenyl)-6-methoxy-1H-indole-3-carbonitrile] had a melting point of 194 to 199 °C. Further, in the data set with HCV replicon (read-out: Replicon IC50 μM), the IC50 was above 2 µM.
The like results for `CCn1c(-c2ccc(O)c(N)c2)c(C#N)c2ccc(OC)cc21` [Compound 322, 2-(3-amino-4-hydroxyphenyl)-1-ethyl-6-methoxy-1H-indole-3-carbonitrile] were, in that order, 223 to 230 °C and above 2 µM.
In the same order, the values of `CCn1c(-c2ccc(O)c(NC(=O)CCl)c2)c(C#N)c2ccc(OC)cc21` [Compound 333, 2-chloro-N-[5-(3-cyano-1-ethyl-6-methoxy-1H-indol-2-yl)-2-hydroxyphenyl]acetamide] are 237 to 240 °C and 0.5 to 2 µM.
The like results for `CCn1c(-c2ccc3c(c2)NC(=O)CO3)c(C#N)c2ccc(OC)cc21` [Compound 334, 1-ethyl-6-methoxy-2-(3-oxo-3,4-dihydro-2H-benzo[1,4]oxazin-6-yl)-1H-indole-3-carbonitrile] were, in that order, 242 to 246 °C and 0.5 to 2 µM.
Turning to `CCn1c(-c2ccc3c(c2)N(C)C(=O)CO3)c(C#N)c2ccc(OC)cc21` [Compound 339, 1-ethyl-6-methoxy-2-(4-methyl-3-oxo-3,4,-dihydro-2H-benzo[1,4]oxazin-6-yl)-1H-indole-3-carbonitrile], the melting point fell in the range of 215 to 219 °C. The IC50 with HCV replicon (read-out: Replicon IC50 μM) is 0.5 to 2 µM.
In the same order, the values of `CCn1c(-c2ccc3[nH]c(=O)oc3c2)c(C#N)c2ccc(OC)cc21` [Compound 340, 1-ethyl-6-methoxy-2-(2-oxo-2,3-dihydro-benzooxazol-6-yl)-1H-indole-3-carbonitrile] are 243 to 248 °C and above 2 µM.
The compound `CCn1c(-c2ccc(Nc3nc(-c4ccccc4)nc4ccccc34)cc2)c(C#N)c2ccc(OC)cc21` [Compound 458, 1-ethyl-6-methoxy-2-[4-(2-phenylquinazolin-4-ylamino)-phenyl]-1H-indole-3-carbonitrile] had a melting point of 272 to 273 °C. In addition, in the data set on HCV replicon (read-out: Replicon IC50), the IC50 was above 2 µM.
Consider `CCn1c(-c2ccc(NS(C)(=O)=O)cc2)c(C#N)c2ccc(OCCN3CCOCC3)cc21` [Compound 478, N-{4-[3-cyano-1-ethyl-6-(2-morpholin-4-yl-ethoxy)-1H-indol-2-yl]-phenyl}methanesulfonamide], for which the melting point is 172 to 175 °C. Moreover, in the data set on HCV replicon (read-out: Replicon IC50), the IC50 is below 0.5 µM.
In the same order, the values of `CCn1c(I)c(C#N)c2cc([N+](=O)[O-])c(OC)cc21` [Compound 499, 1-ethyl-2-iodo-6-methoxy-5-nitro-1H-indole-3-carbonitrile] are 235 to 250 °C and below 0.5 µM.
As for `CCn1c(-c2ccc(N3CCCS3(=O)=O)cc2)c(C#N)c2ccc(OC(C)C)cc21` [Compound 666, 2-[4-(1,1-dioxo-1λ^6-isothiazolidin-2-yl)phenyl]-1-ethyl-6-isopropoxy-1H-indole-3-carbonitrile], the melting point lay within 207 to 209 °C. Moreover, in the data set with HCV replicon (read-out: Replicon IC50 μM), the IC50 was below 0.5 µM.
Compound `CCn1c(-c2ccc(N(C)S(=O)(=O)CCN3CCOCC3)cc2)c(C#N)c2ccc(OC)cc21` [Compound 668] showed a melting point of 171 to 174 °C. The IC50 with HCV replicon (read-out: Replicon IC50 μM) was 0.5 to 2 µM.
In the same order, the values of `COc1ccc2c(C#N)c(-c3ccc(N4CCCS4(=O)=O)cc3)n(CC3CC3)c2c1` [Compound 716, 2-[4-(1,1-dioxidoisothiazolidin-2-yl)phenyl]-1-cyclopropylmethyl-6-methoxy-1H-indole-3-carbonitrile] are 204 to 205 °C and below 0.5 µM.
`CCn1c(-c2ccc(N3CCNS3(=O)=O)cc2)c(C#N)c2ccc(OC)cc21` [Compound 725, 2-[4-(1,1-dioxo-1λ^6-[1,2,5]thiadiazolidin-2-yl)phenyl]-1-ethyl-6-methoxy-1H-indole-3-carbonitrile]: the melting point lay within 215 to 216 °C. For the same compound, the IC50 in the data set with HCV replicon (read-out: Replicon IC50 μM) lay within 0.5 to 2 µM.
The like results for `CCn1c(-c2ccc(N3CCN(C)S3(=O)=O)cc2)c(C#N)c2ccc(OC)cc21` [Compound 726, 1-ethyl-6-methoxy-2-[4-(5-methyl-1,1-dioxo-1λ^6-[1,2,5]thiadiazolidin-2-yl)-phenyl]-1H-indole-3-carbonitrile] were, in that order, 221 to 222 °C and 0.5 to 2 µM.
In the same order, the values of `CCn1c(-c2ccc(N3CCCS3(=O)=O)cc2)c(C#N)c2ccc(OCCN3CCOCC3)cc21` [Compound 729, 2-[4-(1,1-dioxo-1λ^6-isothiazolidin-2-yl)-phenyl]-1-ethyl-6-(2-morpholin-4-yl-ethoxy)-1H-indole-3-carbonitrile] are 213 to 217 °C and above 2 µM.
The like results for `CCn1c(-c2cccc(NC(N)=S)c2)c(C#N)c2ccc(OC)cc21` [Compound 767, [3-(3-cyano-1-ethyl-6-methoxy-1H-indol-2-yl)-phenyl]-thiourea] were, in that order, 204 to 205 °C and below 0.5 µM.
On to `CCOc1ccc2c(C#N)c(-c3ccc(NP(=O)(OCC)OCC)cc3)n(CC)c2c1` [Compound 772], for which the melting point lay in the range of 211 to 212 °C. The IC50 with HCV replicon (read-out: Replicon IC50 μM) was below 0.5 µM.
The like results for `CCOC(=O)CNC(=O)Nc1ccc(-c2c(C#N)c3ccc(OCC)cc3n2CC)cc1` [Compound 773, ethyl {3-[4-(3-cyano-6-ethoxy-1-ethyl-1H-indol-2-yl)-phenyl]-ureido}-acetate] were, in that order, 191 to 193 °C and 0.5 to 2 µM.
For the compound `CCOc1ccc2c(C#N)c(-c3ccc(N4CC(=O)NC4=O)cc3)n(CC)c2c1` [Compound 776, 2-[4-(2,4-dioxo-imidazolidin-1-yl)phenyl]-6-ethoxy-1-ethyl-1H-indole-3-carbonitrile], the melting point is 257 to 258 °C. The IC50 in the data set on HCV replicon (read-out: Replicon IC50 μM) was below 0.5 µM.
In the same order, the values of `CCOc1ccc2c(C#N)c(-c3ccc(NC(=O)NC(Cc4ccccc4)C(=O)OC)cc3)n(CC)c2c1` (stereo not shown) [Compound 777, methyl 2-{3-[4-(3-cyano-6-ethoxy-1-ethyl-1H-indol-2-yl)-phenyl]-ureido}-3-phenyl-propionate] are 124 to 127 °C and below 0.5 µM.
As for `CCOc1ccc2c(C#N)c(-c3ccc(N4C(=O)CNC4=O)cc3)n(CC)c2c1` [Compound 779, 2-[4-(2,5-dioxo-imidazolidin-1-yl)-phenyl]-6-ethoxy-1-ethyl-1H-indole-3-carbonitrile], the melting point fell in the range of 265 to 267 °C. Further, in the data set on HCV replicon (read-out: Replicon IC50 μM), the IC50 was below 0.5 µM.
`CCOc1ccc2c(C(=O)N(C)C)c(-c3ccc(N4C(=O)C(C)N(C)C4=O)cc3)n(CC)c2c1` (stereo not shown) [Compound 780, N,N-Dimethyl-2-[4-(3,4-dimethyl-2,5-dioxo-imidazolidin-1-yl)-phenyl]-6-ethoxy-1-ethyl-1H-indole-3-carboxamide] had a melting point of 219 to 220 °C. Further, the IC50 with HCV replicon (read-out: Replicon IC50 μM) is 0.5 to 2 µM.
The like results for `CCOc1ccc2c(C(=O)N(C)C)c(-c3ccc(N4C(=O)CN(C)C4=O)cc3)n(CC)c2c1` [Compound 781, N,N-Dimethyl-6-ethoxy-1-ethyl-2-[4-(3-methyl-2,5-dioxo-imidazolidin-1-yl)-phenyl]-1H-indole-3-carboxamide] were, in that order, 207 to 208 °C and below 0.5 µM.
`CCn1c(N2CCN(C(=O)OC(C)(C)C)CC2)c(C#N)c2ccc(C(F)(F)F)cc21` [Compound 785, 4-(3-cyano-1-ethyl-6-trifluoromethyl-1H-indol-2-yl)-piperazine-1-carboxylic acid tert-butyl ester] returned a melting point of 151 to 153 °C. In addition, the IC50 in the data set on HCV replicon (read-out: Replicon IC50 μM) lay within 0.5 to 2 µM.
The like results for `CCCn1c(-c2ccc(N3CCCS3(=O)=O)cc2)c(-c2cnco2)c2ccc(OC)cc21` [Compound 805] were, in that order, 217 to 222 °C and above 2 µM.
In turn, `CCn1c(-c2ccc(N(CCOC(C)=O)S(C)(=O)=O)cc2)c(C#N)c2ccc(OC)cc21` [Compound 815, N-(2-acetoxyethyl)-N-[4-(3-cyano-1-ethyl-6-methoxy-1H-indol-2-yl)-phenyl]methanesulfonamide] showed a melting point of 153 to 154 °C. Further, the IC50 in the data set with HCV replicon (read-out: Replicon IC50 μM) was above 2 µM.
In the same order, the values of `CCn1c(-c2ccc(N(CCO)S(C)(=O)=O)cc2)c(C#N)c2ccc(OC)cc21` [Compound 828, N-[4-(3-cyano-1-ethyl-6-methoxy-1H-indol-2-yl)-phenyl]-N-(2-hydroxyethyl)-methanesulfonamide] are 198 to 200 °C and 0.5 to 2 µM.
In the same order, the values of `CCOc1ccc(-c2c(C#N)c3ccc(Br)cc3n2CC)cc1` [Compound 831, 6-Bromo-2-(4-ethoxyphenyl)-1-ethyl-1H-indole-3-carbonitrile] are 140 to 141 °C and above 2 µM.

Values taken from patent publication US7868037B2 (PTC Therapeutics, Inc., priority 2004, dated 2011).
